7 compounds from patent publication US12091385B2, “Pyridinylcyanoguanidine derivative and use thereof” (Rushi Biotech (Hangzhou) Co., Ltd, priority 2021, dated 2024) can be followed below.

Usually IC50 stands for the midpoint of a concentration-inhibition curve.

Holding throughout (format): cell-based
For experiment [1], the system named is Human pancreatic cancer cell CFPAC-1. The experiment is described as follows: CCK-8 cell proliferation assay, CFPAC-1. The note with it: CFPAC-1 cells, 72 hrs with drug, CCK-8, OD 450 nm.
In experiment [2] the test system is Human colon cancer cell HCT-116. The experiment is described as follows: CCK-8 cell proliferation assay, HCT-116. The note with it: HCT116 cells, 72 hrs with drug, CCK-8, OD 450 nm. In outline: (§1)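 Cells seeded at 5×10^4 cells/ml (RPMI 8226) or 3.5×10^4 cells/ml (others), 100 μl/well, then incubated 24 h at 37 °C, 5% CO2. Compound diluted in culture medium to working concentration and added; proliferation read by CCK-8.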
A general note: Tetrazolium dyes change colour on reduction, which living cells bring about.

Experiment [3] has as its system Human esophageal cancer cell TE-1. The experiment is described as follows: CCK-8 cell proliferation assay, TE-1. As to conditions: TE-1 cells, 72 hrs with drug, CCK-8, OD 450 nm. In outline: as §1
Experiment [4] deals with Human gastric cancer cell MKN45. The experiment is described as follows: CCK-8 cell proliferation assay, MKN45. As to conditions: MKN-45 cells, 72 hrs with drug, CCK-8, OD 450 nm. Put shortly: as §1
The test system of experiment [5] is Human multiple myeloma cell RPMI 8226. The experiment is described as follows: CCK-8 cell proliferation assay, RPMI 8226. As to conditions: RPMI8226 cells, 72 hrs with drug, CCK-8, OD 450 nm. In outline:
as §1

Experiment [6] has as its system Human lung adenocarcinoma cell A549. The experiment in a line: CCK-8 cell proliferation assay, A549. As to conditions: A549 cells, 72 hrs with drug, CCK-8, OD 450 nm. Put shortly:
as §1

Experiment [7] relates to Human hepatoma cell HepG2. The experiment in a line: CCK-8 cell proliferation assay, HepG2. The note with it: HepG2 cells, 72 hrs with drug, CCK-8, OD 450 nm. Put shortly:
as §1

`N#CN=C(NCCCCCCC1CCN(C(=O)c2ccco2)C1)Nc1cccnc1` (stereo not shown) [BSS-PC062, 2-cyano-1-(6-(1-(furoyl)pyrrolidine-3-yl)hexyl)-3-(3-pyridinyl)guanidine]: the IC50 in experiment [1] is 34 nM; in experiment [2] it was 47 nM; in experiment [3], 49 nM; in experiment [4], 39 nM; in experiment [5], 23 nM; in experiment [6], 46 nM. The same compound registered an IC50 in experiment [7] of 58 nM.
For `N#CN=C(NCCCCCCC1CCN(C(=O)C2CCCS2)C1)Nc1cccnc1` (stereo not shown) [BSS-PC063, 2-cyano-1-(6-(1-(2-tetrahydrothienylformyl)pyrrolidine-3-yl)hexyl)-3-(3-pyridinyl)guanidine], the IC50 in experiment [1] was 46 nM; in experiment [2] it was 109 nM; in experiment [3], 83 nM; in experiment [4], 62 nM; in experiment [5] it was 40 nM; in experiment [6], 69 nM. The compound further registered a 50% inhibitory concentration (IC50) in experiment [7] of 90 nM.
In the case of `N#CN=C(NCCCCCCC1CCN(C(=O)c2cc3ccccc3[nH]2)C1)Nc1ccncc1` (stereo not shown) [BSS-PC071, 2-cyano-1-(6-(1-(2-indolylformyl)pyrrolidine-3-yl)hexyl)-3-(4-pyridinyl)guanidine], the IC50 in experiment [1] turned out to be 61 nM; in experiment [2] it was 72 nM; in experiment [3], 106 nM; in experiment [4], 65 nM; in experiment [5], 49 nM; in experiment [6], 75 nM. Besides, the IC50 in experiment [7] was determined as 153 nM.
Regarding `N#CN=C(NCCCCCCC1CCN(C(=O)c2cc3ccccc3o2)C1)Nc1ccncc1` (stereo not shown) [BSS-PC072, 2-cyano-1-(6-(1-(2-benzofurylformyl)pyrrolidine-3-yl)hexyl)-3-(4-pyridinyl)guanidine], the IC50 in experiment [1] is 47 nM; in experiment [2], 92 nM; in experiment [3] it was 92 nM; in experiment [4] it was 43 nM; in experiment [5], 41 nM; in experiment [6], 64 nM. Moreover, in experiment [7], the IC50 was determined as 98 nM.
As for `N#CN=C(NCCCCCCC1CCN(C(=O)c2ccco2)C1)Nc1cc(F)nc(F)c1` (stereo not shown) [BSS-PC076], the IC50 in experiment [1] stood at 29 nM; in experiment [2] it was 53 nM; in experiment [3], 46 nM; in experiment [4] it was 45 nM; in experiment [5], 26 nM; in experiment [6], 33 nM. Besides, the IC50 in experiment [7] turned out to be 42 nM.
In the case of `N#CN=C(NCCCCCCC1CCN(C(=O)c2ccco2)C1)Nc1cc(Cl)nc(Cl)c1` (stereo not shown) [BSS-PC080], the IC50 in experiment [1] was 51 nM; in experiment [2], 75 nM; in experiment [3], 62 nM; in experiment [4], 64 nM; in experiment [5], 42 nM; in experiment [6], 66 nM. This compound returned an IC50 in experiment [7] of 83 nM.
As to `O=C(/C=C/c1cccnc1)NCCCCC1CCN(C(=O)c2ccccc2)CC1` [FK866, reference compound], the half-maximal inhibitory concentration (IC50) in experiment [1] worked out at 37 nM; in experiment [2], 92 nM; in experiment [3] it was 112 nM; in experiment [4] it was 39 nM; in experiment [5], 20 nM; in experiment [6], 37 nM. In experiment [7], this compound gave an IC50 of 99 nM.
